Measurements: patent publication US20260098058A1, “COMPOUND - DIAGNOSTIC MARKER FOR OVARIAN CANCER, METHOD FOR DETECTING ENZYMATIC ACTIVITY, METHOD FOR DIAGNOSIS OF OVARIAN CANCER, KIT COMPRISING THE COMPOUND, USES OF THE COMPOUND AND METHOD FOR THE TREATMENT OF OVARIAN CANCER” (Urteste S.A., priority 2022, published 2026)
Values joined by “and” are separate entries in the source; they are usually repeats but may differ in a detail not shown here. Equal entries are not always repeated. “Also recorded” adds a separate entry of the source. Starred links: 1 amine or outer side, 2 acyl side, 3 side chain; linkers in the order of their positions; H or OH if unused. Non-standard residues stand in square brackets, D forms with d. No end group written: not given here. Benzoyl(5-NH,2-NO2) = O=C(c1cc(N[*:1])ccc1[N+](=O)[O-])[*:2]; 2Abz = Nc1ccccc1C(=O)O

Key:
[1] = test system: urine samples taken from healthy persons (without a cancer diagnosis); assay: Absorbance measurement of substrate hydrolysis in urine from healthy subjects; format: biochemical, human; conditions: for Results of absorbance analysis (rate of hydrolysis of the substrate): 405 nm, 37° C., 60 minutes, pH 8.0, triplicate
[2] = test system: enzymatic (proteolytic) activity in urine from a subject suffering from ovarian cancer; assay: Absorbance measurement of substrate hydrolysis in urine from subjects with ovarian cancer; format: biochemical, human; conditions: for Results of absorbance analysis (rate of hydrolysis of the substrate): 405 nm, 37° C., 60 minutes, pH 8.0, triplicate
Description: (§1) The activity of the novel compounds according to the invention was studied in a group of 20 subjects diagnosed with ovarian cancer using the representative compound according to the invention. […] The remaining compounds according to the invention are characterized by the analogous mechanism of action. For this purpose, the representative compound according to the invention, ABZ^1-Asp^2-Thr^3-Phe^4-Ile^5-NH2, was dissolved in dimethyl sulfoxide (at a concentration of 0.5 mg/mL) and then […] of the solution was mixed with […] of a buffer (200 mM Tris-HCl, pH 8.0) and […] of urine from a subject suffering from ovarian cancer. The measurement was performed on a 96-well plate designed for measuring absorbance and each sample was analysed in triplicate at the temperature of 37° C. The duration of the measurement was 60 minutes. During the measurement, the wavelength characteristic for the chromophore (ANB-NH2) being released was monitored at the wavelength 405 nm (range 380-430 nm).

[3] = test system: urine samples from subjects with ovarian cancer or another neoplastic disease; assay: Selectivity of substrate cleavage by cancer type (urine samples); format: biochemical, human; conditions: intestine, kidney, prostate, pancreas, stomach, lung, uterine body and liver cancer samples (FIG. 3)
Source text: Arabic numerals indicate the numbers of given cancer types. The samples tested for each type of cancer were derived from 20 different patients for each of the tested cancers. The results are mean values for given cancer types.
as §1
Furthermore, the dependence of the cleavage selectivity of the substrate, i.e. the compound according to the invention, on the cancer type being examined, was studied. […]

[4] = test system: enzyme(s) in the studied material; assay: Dependence of substrate hydrolysis on reaction pH; format: biochemical; conditions: FIG. 4
Description: Furthermore, measurements concerning the dependence of the proteolytic activity of the representative compound according to the invention on the reaction pH were performed.

[5] = test system: urine taken from a person diagnosed with ovarian cancer; assay: RP HPLC analysis of substrate cleavage in urine; format: biochemical, human; conditions: randomly selected urine sample from a person diagnosed with ovarian cancer (FIG. 1)

ABZ-Asp-Thr-Phe-Ile-ANB-NH2 ([2Abz]DTFI-{Benzoyl(5-NH,2-NO2)-NH2})
increase in absorbance within the diagnostic range ([1]; 20 urine samples from healthy subjects (Z21 to Z40)): no increase in absorbance; also recorded: does not lead to an increase in absorbance
Results of absorbance analysis (rate of hydrolysis of the substrate) ([1]; urine sample Z21, healthy subject): 0.000000
Results of absorbance analysis (rate of hydrolysis of the substrate) ([1]; urine sample Z22, healthy subject): 0.000000
Results of absorbance analysis (rate of hydrolysis of the substrate) ([1]; urine sample Z23, healthy subject): 0.000000
Results of absorbance analysis (rate of hydrolysis of the substrate) ([1]; urine sample Z24, healthy subject): 0.000000
Results of absorbance analysis (rate of hydrolysis of the substrate) ([1]; urine sample Z25, healthy subject): 0.000000
Results of absorbance analysis (rate of hydrolysis of the substrate) ([1]; urine sample Z26, healthy subject): 0.000000
Results of absorbance analysis (rate of hydrolysis of the substrate) ([1]; urine sample Z27, healthy subject): 0.000000
Results of absorbance analysis (rate of hydrolysis of the substrate) ([1]; urine sample Z28, healthy subject): 0.000000
Results of absorbance analysis (rate of hydrolysis of the substrate) ([1]; urine sample Z29, healthy subject): 0.000000
Results of absorbance analysis (rate of hydrolysis of the substrate) ([1]; urine sample Z30, healthy subject): 0.000000
Results of absorbance analysis (rate of hydrolysis of the substrate) ([1]; urine sample Z31, healthy subject): 0.000000
Results of absorbance analysis (rate of hydrolysis of the substrate) ([1]; urine sample Z32, healthy subject): 0.000000
Results of absorbance analysis (rate of hydrolysis of the substrate) ([1]; urine sample Z33, healthy subject): 0.000000
Results of absorbance analysis (rate of hydrolysis of the substrate) ([1]; urine sample Z34, healthy subject): 0.000000
Results of absorbance analysis (rate of hydrolysis of the substrate) ([1]; urine sample Z35, healthy subject): 0.000000
Results of absorbance analysis (rate of hydrolysis of the substrate) ([1]; urine sample Z36, healthy subject): 0.000000
Results of absorbance analysis (rate of hydrolysis of the substrate) ([1]; urine sample Z37, healthy subject): 0.000000
Results of absorbance analysis (rate of hydrolysis of the substrate) ([1]; urine sample Z38, healthy subject): 0.000000
Results of absorbance analysis (rate of hydrolysis of the substrate) ([1]; urine sample Z39, healthy subject): 0.000000
Results of absorbance analysis (rate of hydrolysis of the substrate) ([1]; urine sample Z40, healthy subject): 0.000000
colour intensity of the solution (absorbance in time) ([2]; all urine samples from persons diagnosed with ovarian cancer (samples 1-20)): increased with time
efficiency of cleavage of the substrate between samples ([2]; samples 3 and 17 compared with samples 1 or 13): less efficiently
Results of absorbance analysis (rate of hydrolysis of the substrate) ([2]; urine sample 1, ovarian cancer): 0.0066 and 0.006 and 0.0065
Results of absorbance analysis (rate of hydrolysis of the substrate) ([2]; urine sample 2, ovarian cancer): 0.052 and 0.042 and 0.051
Results of absorbance analysis (rate of hydrolysis of the substrate) ([2]; urine sample 3, ovarian cancer): 0.0087 and 0.0088 and 0.0086
Results of absorbance analysis (rate of hydrolysis of the substrate) ([2]; urine sample 4, ovarian cancer): 0.0069 and 0.0051 and 0.0067
Results of absorbance analysis (rate of hydrolysis of the substrate) ([2]; urine sample 5, ovarian cancer): 0.044 and 0.038 and 0.042
Results of absorbance analysis (rate of hydrolysis of the substrate) ([2]; urine sample 6, ovarian cancer): 0.037 and 0.022 and 0.028
Results of absorbance analysis (rate of hydrolysis of the substrate) ([2]; urine sample 8, ovarian cancer): 0.014 and 0.022 and 0.015
Results of absorbance analysis (rate of hydrolysis of the substrate) ([2]; urine sample 9, ovarian cancer): 0.0088 and 0.0101 and 0.0092
Results of absorbance analysis (rate of hydrolysis of the substrate) ([2]; urine sample 10, ovarian cancer): 0.009 and 0.0093 and 0.0085
Results of absorbance analysis (rate of hydrolysis of the substrate) ([2]; urine sample 11, ovarian cancer): 0.0123 and 0.0112 and 0.0145
Results of absorbance analysis (rate of hydrolysis of the substrate) ([2]; urine sample 12, ovarian cancer): 0.0216 and 0.021 and 0.0199
Results of absorbance analysis (rate of hydrolysis of the substrate) ([2]; urine sample 13, ovarian cancer): 0.0045 and 0.0052 and 0.0048
Results of absorbance analysis (rate of hydrolysis of the substrate) ([2]; urine sample 14, ovarian cancer): 0.005 and 0.0061 and 0.0058
Results of absorbance analysis (rate of hydrolysis of the substrate) ([2]; urine sample 15, ovarian cancer): 0.0017 and 0.0015 and 0.0021
Results of absorbance analysis (rate of hydrolysis of the substrate) ([2]; urine sample 16, ovarian cancer): 0.0079 and 0.0084 and 0.0072
Results of absorbance analysis (rate of hydrolysis of the substrate) ([2]; urine sample 18, ovarian cancer): 0.0073 and 0.0068 and 0.0075
Results of absorbance analysis (rate of hydrolysis of the substrate) ([2]; urine sample 19, ovarian cancer): 0.055 and 0.051 and 0.048
Results of absorbance analysis (rate of hydrolysis of the substrate) ([2]; urine sample 20, ovarian cancer): 0.0077 and 0.0075 and 0.0081
cleavage / increase in absorbance with samples of other cancers [3]: is not subject to cleavage
dependence of the hydrolysis level of the substrate on pH [4]: maximum activity at alkaline pH
cleavage products by RP HPLC [5]: cleaves into the peptide fragment ABZ-Asp-Thr-Phe-Ile-OH and the chromophore group of the compound (ANB-NH2)
